# Laboratory results published in patent US5683713A, “Pharmaceutical compositions for topical application” (priority 1993, dated 1997).
# Where two headings read alike, the source gives them in different places.
# What was measured:
# [1] = prior art; cited from earlier work
# [2] = Skin irritation / tolerability; details: thioglycolate esters and amides
# [3] = across human skin; cited from earlier work
# [4] = In-vitro demonstration of the reaction: conversion of cystine into cysteine, followed by TLC; details: after 6 hours; room temperature, water pH 7.2, under nitrogen
# Experimental: A test was made to check whether the presence of a thioglycolate ester will cause conversion of Cystine into Cysteine: [drawing 1]
# In a three necked flask (100 ml), under nitrogen were added 10 ml of water (pH 7.2), 200 mg cystine and 200 mg, of iso-octyl thioglycolate and stirred at room temperature for 24 hours. The reaction was followed by TLC using Silica-Gel precoated plates. As an eluant a mixture of BuOH:H2 O:AcOH in a 10:1:5 ratio respectively was used. The plates were developed by spraying a solution of 5% Ninhydrine in ethanol and heating. […] A control experiment was made under the same conditions but without the Thioglycolate ester. After 20 hours at room temperature no cysteine could be detected.
# [5] = not told; cited from earlier work
# [6] = 6-carboxylfluorescein, rats; pretreatment of the skin with 4% calcium thioglycolate; cited from earlier work
compound,measurement,setting,value
CC(C)=O [acetone],irritation,[1],cause irritation and edema
CCOC(=O)CS [ethyl thioglycolate],irritation,[2],irritants
COC(=O)CS [methyl thioglycolate],irritation,[2],irritants
"CCCCCCCCCC[S+](C)[O-] (stereo not shown) [decyl methyl, sulfoxide]",penetration of sodium methotrexate,[3],enhances the penetration of sodium methotrexate across human skin
same,toxicological problems,[1],creates toxicological problems
"CC(C)CCCCCOC(=O)CS [iso-octyl thioglycolate, Iso-octyl thioglycolate]",conversion of cystine to cysteine (TLC spot),[4],a spot corresponding to cysteine was formed and this spot grew as a function of time
C[S+](C)[O-] [Dimethyl sulfoxide],concentration needed for significant permeation enhancement,[5],> 70%
OCCS [2-Mercaptoethanol],irritation,[1],very strong irritants
O=C(O)CS [calcium thioglycolate],increase of penetration as compared to the control,[6],9 times
tetralinhydrofurfuryl alcohol,irritation,[1],cause irritation and edema
